Series [1] is described as follows: Stability in mouse liver microsomes assessed as parent compound remaining at 0.5 uM after 10 mins by high throughput assay. The series is classed as ADME, microsome. Conditions: read-out: Stability. For orientation: Liver microsomes are a subcellular fraction often used to study metabolism.
The nature of series [2]: Drug uptake in KLH Balb/c mouse model at 0.6 mg/kg, po after 7 hrs. Type of series: ADME, organism-based. The settings on record: in vivo, read-out: Drug uptake.
A short description of series [3]: Drug uptake in Balb/c mouse KLH model at 0.6 mg/kg, po after 24 hrs. The series is classed as ADME, organism-based. The settings on record: in vivo, read-out: Drug uptake.
Series [4] is described as follows: Drug uptake in Balb/c mouse KLH model at 3 mg/kg, po after 7 hrs. The series is classed as ADME, organism-based. Conditions: in vivo, read-out: Drug uptake.
Series [5] can be described thus: Drug uptake in Balb/c mouse KLH model at 3 mg/kg, po after 24 hrs. Type of series: ADME, organism-based. Conditions: in vivo, read-out: Drug uptake.
The nature of series [6]: Drug uptake in Balb/c mouse KLH model at 15 mg/kg, po after 7 hrs. Type of series: ADME, organism-based. Conditions: in vivo, read-out: Drug uptake.
Series [7] in a line: Drug uptake in Balb/c mouse KLH model at 15 mg/kg, po after 24 hrs. The series is classed as ADME, organism-based. The settings on record: in vivo, read-out: Drug uptake.
The nature of series [8]: AUC in BALB/c mouse up to 300 mg/kg, qd measured on day 4. Type of series: ADME, organism-based. The settings on record: in vivo.
Series [9] in a line: Cmax in BALB/c mouse up to 300 mg/kg, qd measured on day 4. Also on record: dose 300 mg/kg. Type of series: ADME, organism-based. The settings on record: in vivo.

Structures are written as SMILES. Some results are limits rather than exact numbers.

Usually AUC stands for the area under the concentration-time curve, a measure of exposure. By Cmax is commonly meant the highest concentration seen after dosing. On to `CC(=O)N1C[C@@H](C)N(c2cccc(-c3cc(-c4ccnn4C4CCOCC4)c4c(N)ncnn34)c2)[C@@H](C)C1`, for which, in series [1], the remaining at 10 min, 0.5 µM is 54%. Moreover, the concentration at 7 h in series [2] was below 6.4 nM; in series [4], 24.9 nM; in series [6], 97.8 nM. Also, the figures for the concentration at 24 h in series [3], in series [5] and in series [7] were below 5.6 nM, below 3.9 nM and below 7 nM, respectively. The exposure (AUC) in series [8] is at most 520 µM·h. The same compound showed a Cmax in series [9] of at most 55000 nM.

For the compound `COc1cc(-c2cc(-c3ccnn3C3CCOCC3)c3c(N)ncnn23)cc(N2[C@H](C)CN(C(C)=O)C[C@@H]2C)c1`, the remaining at 10 min, 0.5 µM in series [1] turned out to be 14%.

On to `CC(=O)N1C[C@@H](C)N(c2cncc(-c3cc(-c4ccnn4C4CCOCC4)c4c(N)ncnn34)c2)[C@@H](C)C1`, for which, in series [1], the remaining at 10 min, 0.5 µM was 48%.

As to `CC(=O)N1C[C@@H](C)N(c2cc(F)cc(-c3cc(-c4ccnn4C4CCOCC4)c4c(N)ncnn34)c2)[C@@H](C)C1`, the remaining at 10 min, 0.5 µM in [1] is 35%.

The record behind these values is ChEMBL document CHEMBL3994626 (Bioorg Med Chem Lett, 2017).
